According to patent US20190161736A1, “CELL CULTURE” (National University of Singapore, priority 2016, published 2019):
Like-named read-outs stand apart in the source and are kept apart here.

Key:
[1] = system: MCF-7 breast cancer cell line clusters; assay: Microwell-based CTC cluster assay, doxorubicin screening on MCF-7 clusters (live/dead staining); type: cell-based; details: Homo sapiens, MCF7, normoxia, 72 hrs exposure from Day 3, viability by Calcein-AM/EtBr
Description: Cell Culture of MCF-7 Cancer Cell Line MCF-7 (HTB-22TM, ATCC, USA), a human breast adenocarcinoma cell line, was first used to mimic CTC cluster formation. Cell lines were maintained in supplemented high-glucose Dulbecco's modified Eagle's medium (DMEM) (Invitrogen, USA) with 10% fetal bovine serum (FBS) (Invitrogen, USA) together with 1% penicillin-streptomycin (Invitrogen, USA). Cultures were kept at 37° C. in a humidified atmosphere containing 5% (v/v) CO2 till 80% confluence. Cells were cultured in sterile 25 cm^2 flasks (BD Bioscience, USA) and sub-cultivated two times a week with media replaced every 48 h. Sub-confluent monolayers were dissociated using 0.01% otrypsin and 5.3 mM EDTA solution (Lonza, Switzerland).
The closed system was then incubated at 37° C., 5% CO2 till drug treatment at Day 3 or Day 11 for MCF-7 cultures and clinical sample cultures respectively.
A stock solution was prepared in 100% DMSO and subsequently was diluted in supplemented DMEM (1 μl to 1 ml of media), resulting in ˜0.1% of DMSO concentration (1 μM drug concentration), which has negligible effects on cells.
To establish the IC50 values, z-stacks images of 25 microwells from each channel were obtained with a confocal microscope.

[2] = system: MCF-7 monolayer cultures; details: monolayer cultures with lower cell counts, <10k cells per ml; read-out: IC50 value (previous studies); cited from earlier work
[3] = system: clinical human primary cancer cells cultured from blood samples (CD45- cells); assay: Microwell-based CTC cluster assay, doxorubicin screening on clusters cultured from breast cancer patient blood samples; details: for IC50 / viability at 1 µM: Homo sapiens; for IC50: 72 hrs exposure; for viability at 1 µM: 72 hrs

COc1cccc2c1C(=O)c1c(O)c3c(c(O)c1C2=O)C[C@@](O)(C(=O)CO)C[C@@H]3O[C@H]1C[C@H](N)[C@H](O)[C@H](C)O1 [doxorubicin, Doxorubicin]
IC50 [1]: 780 ± 20 nM
IC50 [2]: ~500 nM
IC50 ([3]; 72 h, read-out: IC50 value, sample CES021, Post treatment): > 1000 nM
IC50 ([3]; 72 h, read-out: IC50 value, sample CES053, Post treatment): 340 nM
IC50 ([3]; 72 h, read-out: IC50 value, sample P2B28, Post treatment): > 1000 nM
IC50 ([3]; 72 h, read-out: IC50 value, sample P2B29, Post treatment): 860 nM
viability at 1 µM ([3]; 72 h, read-out: Percentage of viable CD45-cells, CES21 Post-treatment, 1.6% of drug (1 μM)): 96.4%
viability at 1 µM ([3]; 72 h, read-out: Percentage of viable CD45-cells, CES21 Post-treatment, 10.9% of drug (1 μM)): 94.9%
viability at 1 µM ([3]; 72 h, read-out: Percentage of viable CD45-cells, CES21 Post-treatment, 34.4% of drug (1 μM)): 92%
viability at 1 µM ([3]; 72 h, read-out: Percentage of viable CD45-cells, CES21 Post-treatment, 65.6% of drug (1 μM)): 78.6%
viability at 1 µM ([3]; 72 h, read-out: Percentage of viable CD45-cells, CES21 Post-treatment, 89.1% of drug (1 μM)): 71.1%
viability at 1 µM ([3]; 72 h, read-out: Percentage of viable CD45-cells, CES21 Post-treatment, 98.4% of drug (1 μM)): 66.9%
viability at 1 µM ([3]; 72 h, read-out: Percentage of viable CD45-cells, CES21 Post-treatment, 100.0% of drug (1 μM)): 67.9%
viability at 1 µM ([3]; 72 h, read-out: Percentage of viable CD45-cells, CES053 Post-treatment, 1.6% of drug (1 μM)): 51.7%
viability at 1 µM ([3]; 72 h, read-out: Percentage of viable CD45-cells, CES053 Post-treatment, 10.9% of drug (1 μM)): 51.4%
viability at 1 µM ([3]; 72 h, read-out: Percentage of viable CD45-cells, CES053 Post-treatment, 34.4% of drug (1 μM)): 48%
viability at 1 µM ([3]; 72 h, read-out: Percentage of viable CD45-cells, CES053 Post-treatment, 65.6% of drug (1 μM)): 52.2%
viability at 1 µM ([3]; 72 h, read-out: Percentage of viable CD45-cells, CES053 Post-treatment, 89.1% of drug (1 μM)): 42.8%
viability at 1 µM ([3]; 72 h, read-out: Percentage of viable CD45-cells, CES053 Post-treatment, 98.4% of drug (1 μM)): 41%
viability at 1 µM ([3]; 72 h, read-out: Percentage of viable CD45-cells, CES053 Post-treatment, 100.0% of drug (1 μM)): 39.8%
viability at 1 µM ([3]; 72 h, read-out: Percentage of viable CD45-cells, P2B28 Post-treatment, 1.6% of drug (1 μM)): 39.3%
viability at 1 µM ([3]; 72 h, read-out: Percentage of viable CD45-cells, P2B28 Post-treatment, 10.9% of drug (1 μM)): 32.6%
viability at 1 µM ([3]; 72 h, read-out: Percentage of viable CD45-cells, P2B28 Post-treatment, 34.4% of drug (1 μM)): 39.2%
viability at 1 µM ([3]; 72 h, read-out: Percentage of viable CD45-cells, P2B28 Post-treatment, 65.6% of drug (1 μM)): 28.8%
viability at 1 µM ([3]; 72 h, read-out: Percentage of viable CD45-cells, P2B28 Post-treatment, 89.1% of drug (1 μM)): 27.6%
viability at 1 µM ([3]; 72 h, read-out: Percentage of viable CD45-cells, P2B28 Post-treatment, 98.4% of drug (1 μM)): 24.4%
viability at 1 µM ([3]; 72 h, read-out: Percentage of viable CD45-cells, P2B28 Post-treatment, 100.0% of drug (1 μM)): 0%
viability at 1 µM ([3]; 72 h, read-out: Percentage of viable CD45-cells, P2B29 Post-treatment, 1.6% of drug (1 μM)): 73.6%
viability at 1 µM ([3]; 72 h, read-out: Percentage of viable CD45-cells, P2B29 Post-treatment, 10.9% of drug (1 μM)): 56.2%
viability at 1 µM ([3]; 72 h, read-out: Percentage of viable CD45-cells, P2B29 Post-treatment, 34.4% of drug (1 μM)): 18.5%
viability at 1 µM ([3]; 72 h, read-out: Percentage of viable CD45-cells, P2B29 Post-treatment, 65.6% of drug (1 μM)): 7.7%
viability at 1 µM ([3]; 72 h, read-out: Percentage of viable CD45-cells, P2B29 Post-treatment, 89.1% of drug (1 μM)): 4.1%
viability at 1 µM ([3]; 72 h, read-out: Percentage of viable CD45-cells, P2B29 Post-treatment, 98.4% of drug (1 μM)): 1.1%
viability at 1 µM ([3]; 72 h, read-out: Percentage of viable CD45-cells, P2B29 Post-treatment, 100.0% of drug (1 μM)): 0.4%
IC50 ([3]; read-out: IC50 value, sample CTB039, Pre-treatment): 850 nM
IC50 ([3]; read-out: IC50 value, sample P2B29, Pre-treatment): 940 ± 40 nM
viability at 1 µM ([3]; read-out: Percentage of viable CD45-cells, CTB039 Pre-treatment, 1.6% of drug (1 μM)): 85.5%
viability at 1 µM ([3]; read-out: Percentage of viable CD45-cells, CTB039 Pre-treatment, 10.9% of drug (1 μM)): 81.6%
viability at 1 µM ([3]; read-out: Percentage of viable CD45-cells, CTB039 Pre-treatment, 34.4% of drug (1 μM)): 69.7%
viability at 1 µM ([3]; read-out: Percentage of viable CD45-cells, CTB039 Pre-treatment, 65.6% of drug (1 μM)): 58.3%
viability at 1 µM ([3]; read-out: Percentage of viable CD45-cells, CTB039 Pre-treatment, 89.1% of drug (1 μM)): 48.3%
viability at 1 µM ([3]; read-out: Percentage of viable CD45-cells, CTB039 Pre-treatment, 98.4% of drug (1 μM)): 44.2%
viability at 1 µM ([3]; read-out: Percentage of viable CD45-cells, CTB039 Pre-treatment, 100.0% of drug (1 μM)): 40.8%
viability at 1 µM ([3]; read-out: Percentage of viable CD45-cells, P2B29 Pre-treatment, 1.6% of drug (1 μM)): 96.6%
viability at 1 µM ([3]; read-out: Percentage of viable CD45-cells, P2B29 Pre-treatment, 10.9% of drug (1 μM)): 86.4%
viability at 1 µM ([3]; read-out: Percentage of viable CD45-cells, P2B29 Pre-treatment, 34.4% of drug (1 μM)): 26.2%
viability at 1 µM ([3]; read-out: Percentage of viable CD45-cells, P2B29 Pre-treatment, 65.6% of drug (1 μM)): 3.9%
viability at 1 µM ([3]; read-out: Percentage of viable CD45-cells, P2B29 Pre-treatment, 89.1% of drug (1 μM)): 2.6%
viability at 1 µM ([3]; read-out: Percentage of viable CD45-cells, P2B29 Pre-treatment, 98.4% of drug (1 μM)): 0.7%
viability at 1 µM ([3]; read-out: Percentage of viable CD45-cells, P2B29 Pre-treatment, 100.0% of drug (1 μM)): 0.4%
average correlation coefficient, percentage of microwells with cluster vs concentration of doxorubicin ([3]; clinical sample cultures, FIG. 15A): −0.71
proportion of microwells with presence of macrophage-like cells vs drug concentration ([3]; clinical sample cultures, FIG. 15B): did not seem to correlate with drug concentration
